Source: US20100184677A1, “USE OF THE HUMAN PANCREATIC POLYPEPTIDE AS A THERAPEUTIC AGENT” (priority 2007, published 2010)

Assays:
HepG2-2.2.15 cells = assay: Cell viability (dye uptake assay) in HepG2-2.2.15 cells; details: HepG2-2.2.15 cells; test peptide 10 micrograms per ml; dye uptake assay (% cell control)
MRC-5 cells = details: human, 6 days
Pseudomonas aeruginosa = format: cell-based; details: 5 micrograms per ml
Streptococcus pneumoniae = format: cell-based; details: 5 micrograms per ml
MRSA = details: 5 micrograms per ml
in vitro [1] = details: human
in vitro [2] = details: human, MRC-5 cells (embryonal lung fibroblasts)
[3] = Cell viability (dye uptake assay) in HepG2-2.2.15 cells; details: human

In the case of Nc1ccn([C@@H]2CS[C@H](CO)O2)c(=O)n1 [3TC, Lamivudine, reference compound], the “% Cell Viability” value (HepG2-2.2.15 cells) was 95.8%.

In the case of Nc1nc(O)c2ncn(COC(CO)CO)c2n1 [Ganciclovir], the “% Cell Viability” value (MRC-5 cells) was 100%.

With CC[C@H](C)[C@H](NC(=O)[C@H](Cc1ccc(O)cc1)NC(=O)[C@H](CCCNC(=N)N)NC(=O)[C@H](CCCNC(=N)N)NC(=O)[C@H](CC(C)C)NC(=O)[C@H](CC(=O)O)NC(=O)[C@H](C)NC(=O)[C@H](C)NC(=O)[C@H](Cc1ccc(O)cc1)NC(=O)[C@H](CCC(N)=O)NC(=O)[C@H](C)NC(=O)[C@H](CCSC)NC(=O)[C@H](CCC(N)=O)NC(=O)[C@H](CCC(=O)O)NC(=O)[C@@H]1CCCN1C(=O)[C@@H](NC(=O)[C@H](C)NC(=O)[C@H](CC(N)=O)NC(=O)[C@H](CC(=O)O)NC(=O)CNC(=O)[C@@H]1CCCN1C(=O)[C@H](Cc1ccc(O)cc1)NC(=O)[C@@H](NC(=O)[C@@H]1CCCN1C(=O)[C@H](CCC(=O)O)NC(=O)[C@H](CC(C)C)NC(=O)[C@@H]1CCCN1C(=O)[C@H](C)N)C(C)C)[C@@H](C)O)C(=O)N[C@@H](CC(N)=O)C(=O)N[C@@H](CCSC)C(=O)N[C@@H](CC(C)C)C(=O)N[C@H](C(=O)N[C@@H](CCCNC(=N)N)C(=O)N1CCC[C@H]1C(=O)N[C@@H](CCCNC(=N)N)C(=O)N[C@@H](Cc1ccc(O)cc1)C(N)=O)[C@@H](C)O [Pancreatic polypeptide] the “% inhibition” value (Pseudomonas aeruginosa) was 0.0%, the “% inhibition” value (Streptococcus pneumoniae) was 0.0% and the “% inhibition” value (MRSA) was 0.0%. For the same compound, the viability at 10 micrograms per ml (in vitro [1]) was 90.2%, the viability at 144 h (in vitro [2]) was 100% and the viability at 144 h, 10 micrograms per ml [3] was 92.5%.
